The text below walks through data of patent US9561228B2 (Celgene Avilomics Research, Inc., priority 2013, dated 2017).

For one assay, the target named is T1, MEK1 activated ERK1 (Homo sapiens, UniProt P27361).
T1 construct: purchased Millipore (Billerica, Mass.) 14-439-K
Description: Omnia continuous-read kinase assay for potency against MEK1 activated ERK1. The assay is classed as biochemical. Particulars: MEK1 activated ERK1, ATP at KM; read-out: ERK1 Omnia WT ATP KM IC50. In a few lines:
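Apparent IC50 came from initial reaction slopes (RFU vs time) plotted against log inhibitor with a variable-slope fit. Reactions were started with ERK1 (4 nM final) added to 50 μM ATP, roughly at its appKM, and 10 μM Sox-conjugated ST17 peptide in 20 mM Tris pH 7.5, 5 mM MgCl2. Fluorescence was monitored every 71 seconds.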

In assay [1] the test system is ERK1/2 phosphorylation of p90RSK in HT29 cells. Put plainly: pRSK MSD Assay in HT29 cells. The assay is classed as cell-based. Particulars: Homo sapiens, HT-29, read-out: ERK1/ERK2 PRSK MSD HT29 EC50. The gist of the method: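 Phospho-RSK level, read by electrochemiluminescence on RSK-antibody-coated MSD plates with a phospho-RSK/Sulfo-tag detection pair, reports cellular ERK1/2 activity. HT29 cells, kept overnight in 0.1% FBS medium, were exposed to compound for 120 min at 37° C before lysis.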

In another assay the target is T2, Erk1 (Homo sapiens, UniProt P27361).
T2 construct: purchased Millipore 14-439
Put plainly: Protein Mass Modification Assay (intact protein MALDI, 60 min, 10-fold excess of compound). The assay is classed as binding. The procedure: Protein Mass Modification Assay
Intact protein: Erk1 from Millipore (Cat. No. 14-439) was incubated for 60 min. at room temperature with a 10-fold excess of test compound to protein. 4 μL aliquots of the resulting mixture were diluted with 15 μL of 0.2% TFA prior to micro C4 ZipTipping directly onto the MALDI target using sinapinic acid as the desorption matrix (10 mg/ml in 0.1% TFA:Acetonitrile 50:50, v/v). The centroid mass of the target protein in the control sample was compared with the centroid mass of the target protein incubated with compound. A shift in the centroid mass of the treated protein compared to the untreated protein was divided by the molecular weight of the compound. This number corresponds to the percentage of modified protein after one hour incubation. Results from this assay are reported in Table A under the column “ERK1 Mass Mod (%).”

Assay [2] concerns HT-29 cells (colorectal adenocarcinoma). Put plainly: Inhibition of cancer cell proliferation, HT-29 (CellTiterGlo, 72 hours). The assay is classed as cell-based. Particulars: Homo sapiens. In a few lines:
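Proliferation over 72 h at 37° C was read by CellTiterGlo luminescence, translated to cell counts with a cell-density standard curve (390–50,000 cells). Compound added as 3-fold dilutions from a 5,000 nM two-fold stock to 3000 seeded HT-29 cells; GI50 from percent inhibition relative to untreated wells.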
For orientation: Cellular ATP, detected with luciferase, serves as a proxy for viable cell number.

For assay [3], the system named is A375 cells (malignant melanoma). Put plainly: Inhibition of cancer cell proliferation, A375 (CellTiterGlo, 72 hours). The assay is classed as cell-based. Particulars: Homo sapiens, A-375. The procedure: Measurement of Inhibition of Cancer Cell Proliferation (A375/Malignant Melanoma)
The following protocol used an A375 cell line, which cell line is a model for malignant melanoma. A375 cells were split and 3000 cells in […] of growth medium were added per well of a flat-bottom 96-well plate. A two-fold test compound solution in serum-free DMEM was made, starting at 5,000 nM. Then, 3-fold serial dilutions were made across the plate from well 1 to well 11. Well 12, the last well in a row on the plate, was left as untreated control. 100 μl compound solutions were then transferred to the wells, so the total volume of media was 200 μl per well. Plates were returned to a 37° C. incubator, and the cells were cultured for 72 hours. To measure cell proliferation after 72 hours, media was discarded from the plates, 50 μl/well of fresh medium was added, and 50 μl CellTiterGlo solution was added (Promega Cat#G7573). The plate was covered with a dark lid and incubated for 10 min. A white sealing tape was applied to the bottom of the plate, and the plate was read in a luminescence plate reader. […] 50 μl CellTiterGlo was added per well, and the plate was read in a luminescence plate reader after 10 min. The reading was plotted vs. cell number to generate a standard curve and the equation of the curve fit. The compound-treated sample luminescence readings were converted to cell numbers using the curve-fit equation. The percent of inhibition, using untreated control as 100% growth, was then calculated. GI50 was then calculated by GraphPad Prism.

pEC50, pIC50: −log10 of the molar value.

T1 sequence (P27361 whole entry): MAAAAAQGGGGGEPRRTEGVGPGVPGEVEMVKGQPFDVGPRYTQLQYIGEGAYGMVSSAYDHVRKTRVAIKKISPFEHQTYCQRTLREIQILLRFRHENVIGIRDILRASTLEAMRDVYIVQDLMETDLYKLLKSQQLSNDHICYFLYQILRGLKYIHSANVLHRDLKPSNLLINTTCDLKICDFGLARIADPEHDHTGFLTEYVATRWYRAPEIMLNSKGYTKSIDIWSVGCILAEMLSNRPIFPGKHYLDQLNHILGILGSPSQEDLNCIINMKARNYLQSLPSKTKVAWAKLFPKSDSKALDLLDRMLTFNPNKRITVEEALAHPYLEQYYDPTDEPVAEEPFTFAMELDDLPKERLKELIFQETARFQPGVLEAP
T2 sequence (P27361 whole entry): as above

As to `C=CC(=O)N[C@@H]1CCCC[C@H]1Nc1nc(N[C@H]2CCCN(C(=O)CO)C2)ncc1C(F)(F)F` [Compound I-32, N-((1R,2R)-2-((2-(((S)-1-(2-hydroxyacetyl)piperidin-3-yl)amino)-5-(trifluoromethyl)pyrimidin-4-yl)amino)cyclohexyl)acrylamide], the pIC50 (usually the negative decadic logarithm of the IC50, by convention in mol/L) on MEK1 activated ERK1 is 6.30 to 7.00. The pEC50 in assay [1] was less than 6.00. For the same molecule, the “ERK1 Mass Mod (%)” value at Erk1 is listed as “F (a mass modification of 31-69%)”.
`C=CC(=O)Nc1ccccc1Nc1nc(Nc2ccc(N3CCN(C(C)=O)CC3)cc2OC)ncc1C(F)(F)F` [Compound I-66, N-(2-((2-((4-(4-Acetylpiperazin-1-yl)-2-methoxyphenyl)amino)-5-(trifluoromethyl)pyrimidin-4-yl)amino)phenyl)acrylamide]: the pIC50 at MEK1 activated ERK1 is 6.00 to 6.30. Further, the “ERK1 Mass Mod (%)” value on Erk1 is recorded as “E (key: E: a mass modification of ≧70%; F: a mass modification of 31-69%; G: a mass modification ≦30%)”.
`C=CC(=O)Nc1cc(OC)ccc1Oc1nc(Nc2ccc(N3CCC[C@@H]3CO)cc2OC)ncc1C(N)=O` [Compound I-264, (R)-4-(2-acrylamido-4-methoxyphenoxy)-2-((4-(2-(hydroxymethyl)pyrrolidin-1-yl)-2-methoxyphenyl)amino)pyrimidine-5-carboxamide]: the pIC50 on MEK1 activated ERK1 was less than 6.00. Also, the “ERK1 Mass Mod (%)” value at Erk1 is recorded as “F (a mass modification of 31-69%)”.
For `C/C=C/C(=O)Nc1cc(F)ccc1Nc1nc(N[C@@H]2CCC[C@H](C(N)=O)C2)ncc1Cl` (racemic) [Compound I-113, Rac-cis-(E)-3-((4-((2-(but-2-enamido)-4-fluorophenyl)amino)-5-chloropyrimidin-2-yl)amino)cyclohexanecarboxamide], on MEK1 activated ERK1, the negative-log IC50 (pIC50) was less than 6.00. The pEC50 in assay [1] was less than 6.00. On Erk1, the “ERK1 Mass Mod (%)” value is listed as “F (key: E: a mass modification of ≧70%; F: a mass modification of 31-69%; G: a mass modification ≦30%)”.
In the case of `C=CC(=O)Nc1cc(OC)ccc1Nc1nc(Nc2ccc(N3CCC[C@H]3C(N)=O)cc2C#N)ncc1Cl` [Compound I-178, (S)-1-(4-((4-((2-acrylamido-4-methoxyphenyl)amino)-5-chloropyrimidin-2-yl)amino)-3-cyanophenyl)pyrrolidine-2-carboxamide], the negative-log IC50 (pIC50) on MEK1 activated ERK1 was 6.30 to 7.00. Moreover, the “ERK1 Mass Mod (%)” value at Erk1 is recorded as “E (a mass modification of ≧70%)”.
As for `C=CC(=O)Nc1ccccc1Nc1nc(N[C@H]2CC[C@H](F)CC2)ncc1C(F)(F)F` [Compound I-111, N-(2-((2-(trans-(4-fluorocyclohexyl)amino)-5-(trifluoromethyl)pyrimidin-4-yl)amino)phenyl)acrylamide], the “ERK1 Mass Mod (%)” value on Erk1 was “E (a mass modification of ≧70%)”.
In the case of `C=CC(=O)Nc1cc(F)ccc1Nc1nc(N[C@H]2CC[C@@H](F)CC2)ncc1C(F)(F)F` [Compound I-8, N-(5-fluoro-2-((2-((cis-4-fluorocyclohexyl)amino)-5-(trifluoromethyl)pyrimidin-4-yl)amino)phenyl)acrylamide], the pIC50 on MEK1 activated ERK1 was 6.30 to 7.00. In addition, the “ERK1 Mass Mod (%)” value at Erk1 is “E (a mass modification of ≧70%)”.
In the same order, the values of `C=CC(=O)Nc1ccccc1Nc1nc(N[C@@H]2CCC[C@H](C(=O)O)C2)ncc1Cl` (racemic) [Compound I-133, Rac-3-((4-((2-acrylamidophenyl)amino)-5-chloropyrimidin-2-yl)amino)-cis-cyclohexanecarboxylic acid] are 6.30 to 7.00 and “E (a mass modification of ≧70%)”.
For `C=CC(=O)N[C@H]1CCCC[C@@H]1Nc1nc(N[C@H]2CCCN(C(=O)CO)C2)ncc1C(F)(F)F` (racemic) [Compound I-27, Rac-N-(2-((2-(((R)-1-(2-hydroxyacetyl)piperidin-3-yl)amino)-5-(trifluoromethyl)pyrimidin-4-yl)amino)-trans-cyclohexyl)acrylamide], the pEC50 in assay [1] is 6.00 to 6.30. In addition, the “ERK1 Mass Mod (%)” value at Erk1 is given as “F (key: E: a mass modification of ≧70%; F: a mass modification of 31-69%; G: a mass modification ≦30%)”.
Consider `C=CC(=O)Nc1ccccc1Nc1nc(Nc2ccc(N3CCN(C(C)=O)CC3)cc2OC)ncc1Cl` [Compound I-149, N-(2-((2-((4-(4-acetylpiperazin-1-yl)-2-methoxyphenyl)amino)-5-chloropyrimidin-4-yl)amino)phenyl)acrylamide], for which, on MEK1 activated ERK1, the pIC50 was 6.30 to 7.00. The “ERK1 Mass Mod (%)” value at Erk1 is recorded as “E (key: E: a mass modification of ≧70%; F: a mass modification of 31-69%; G: a mass modification ≦30%)”.
Take `C=CC(=O)Nc1cc(C)ccc1Nc1nc(Nc2cc(C(N)=O)ccc2C)ncc1C(F)(F)F` [Compound I-79, 3-((4-((2-Acrylamido-4-methylphenyl)amino)-5-(trifluoromethyl)pyrimidin-2-yl)amino)-4-methylbenzamide]: the GI50 in assay [2] and in assay [3] was less than 100 nM each time. Also, the pIC50 on MEK1 activated ERK1 is 6.30 to 7.00. For the same molecule, the pEC50 in assay [1] was greater than 7.00.
As to `CC(=O)N1CCC[C@H](Nc2ncc(C(F)(F)F)c(N[C@H]3[C@@H](C(N)=O)[C@@H]4C=C[C@H]3C4)n2)C1` [Compound I-308, (1S,2S,3R,4R)-3-((2-(((S)-1-acetylpiperidin-3-yl)amino)-5-(trifluoromethyl)pyrimidin-4-yl)amino)bicyclo[2.2.1]hept-5-ene-2-carboxamide], the GI50 in assay [2] and in assay [3] was 101 to 500 nM in each case. At MEK1 activated ERK1, the pIC50 was 6.30 to 7.00. For the same molecule, the pEC50 in assay [1] is less than 6.00.
`C=CC(=O)Nc1ccccc1Nc1nc(Nc2cc(C(=O)NOCCO)ccc2C#N)ncc1Cl` [Compound I-202, 3-((4-((2-acrylamidophenyl)amino)-5-chloropyrimidin-2-yl)amino)-4-cyano-N-(2-hydroxyethoxyl)benzamide]: the pIC50 at MEK1 activated ERK1 was 6.30 to 7.00. The “ERK1 Mass Mod (%)” value at Erk1 is “F (a mass modification of 31-69%)”.
On to `C=CC(=O)Nc1ccccc1Nc1nc(Nc2cc(C(=O)NCCO)c(F)cc2C)ncc1C(F)(F)F` [Compound I-81, 5-((4-((2-Acrylamidophenyl)amino)-5-(trifluoromethyl)pyrimidin-2-yl)amino)-2-fluoro-N-(2-hydroxyethyl)-4-methylbenzamide], for which the GI50 in assay [2] and in assay [3] was less than 100 nM each time. For the same molecule, the pIC50 on MEK1 activated ERK1 was 6.30 to 7.00. For the same molecule, in assay [1], the pEC50 was 6.30 to 7.00.
Consider `C=CC(=O)Nc1cc(C)ccc1Nc1nc(Nc2ccncc2C)ncc1Cl` [Compound I-236, N-(2-((5-chloro-2-((3-methylpyridin-4-yl)amino)pyrimidin-4-yl)amino)-5-methylphenyl)acrylamide], for which the GI50 (usually the concentration that inhibits growth by half) is 101 to 500 nM in assay [2] and less than 100 nM in assay [3]. Also, on MEK1 activated ERK1, the negative-log IC50 (pIC50) was 6.30 to 7.00. The pEC50 in assay [1] is 6.30 to 7.00.
As to `C=CC(=O)Nc1cc(C)ccc1Nc1nc(Nc2cc(C(=O)NCCO)c(F)cc2C)ncc1Cl` [Compound I-234, 5-((4-((2-acrylamido-4-methylphenyl)amino)-5-chloropyrimidin-2-yl)amino)-2-fluoro-N-(2-hydroxyethyl)-4-methylbenzamide], the GI50 in assay [2] and in assay [3] was 101 to 500 nM throughout. Further, the pIC50 on MEK1 activated ERK1 was 6.30 to 7.00. Besides, the pEC50 in assay [1] is 6.30 to 7.00.
On to `C=CC(=O)Nc1ccccc1Nc1nc(Nc2ccc(N(CCNC(=O)OC(C)(C)C)C(C)=O)cc2OC)ncc1Cl` [Compound I-174, tert-butyl(2-(N-(4-((4-((2-acrylamidophenyl)amino)-5-chloropyrimidin-2-yl)amino)-3-methoxyphenyl)acetamido)ethyl)carbamate], for which the pIC50 on MEK1 activated ERK1 was 6.00 to 6.30. Besides, the “ERK1 Mass Mod (%)” value at Erk1 is listed as “E (a mass modification of ≧70%)”.
